Results from publication PMC7370100, “In Vitro Assessment of the Genotoxic Hazard of Novel Hydroxamic Acid- and Benzamide-Type Histone Deacetylase Inhibitors (HDACi)” (International Journal of Molecular Sciences, 2020).
Like-named read-outs stand apart in the source and are kept apart here.

Columns and labels:
[1] = tested on: V79 cells; assay: Alkaline comet assay (DNA strand breaks); conditions: for Mean (% DNA in tail) / DNA strand breaks (comet assay): 24 h; for Mean (% DNA in tail) / Comet Assay: V79; for Mean (% DNA in tail): untreated control 16.8; for DNA strand breaks (comet assay): V79, in words; for Comet Assay: summary grade
Description: The formation of DNA strand breaks and apurinic/apyrimidinic sites was monitored employing the alkaline comet assay [87], which is part of the OECD guideline of in vivo genotoxicity testings and detects DNA strand breaks (DNA single- and double-strand breaks) and alkali-labile sites [87]. Briefly, after aspiration of the medium and trypsinization, cells were mixed with 0.5% melting agarose and transferred onto agarose-coated (1.5%) slides. After lysis in alkaline buffer (pH 10) (1 h, 4 °C, light protection) and unwinding of the DNA in precooled lysis buffer (pH >13) (20 min, 4 °C, light protection), electrophoresis was performed (electric current: 300 mA constant; 1 V/cm). After neutralization in salt buffer (pH 7.5) and staining with propidium iodide solution (50 µg/mL), comets were evaluated by fluorescence microscopy. Quantification of migrated DNA was performed with TriTek Comet Score™ software Version 1.5, evaluating ≥50 cells per condition (blinded assessment). […] Fold increase in tail intensities of treated cells were calculated by relating the % DNA in tail of treated cells to that of the corresponding untreated controls, which were set to 1.0 (see Figure 2B).

[2] = tested on: VC8 hamster cells (BRCA1/2 defect); assay: Viability of DSB repair defective VC8 versus wild-type V79 cells (Alamar blue); assay type: cell-based; conditions: summary grade, V79 versus VC8; also: key: −: no effect; 0: weak effect; +: moderate effect; ++: strong effect; +++: very strong effect as compared to untreated controls
Description: (§1) V79 hamster lung cells, which are recommended in the OECD toxicology guidelines for hazard identification (i.e., cytotoxicity and genotoxicity) of chemicals, were purchased from the German Collection of Microorganisms and Cell Cultures (DSMZ, Braunschweig, Germany). They were cultured in Dulbecco´s modified Eagle medium and Ham´s F12 medium (DMEM/F12) (PromoCell, Heidelberg, Germany) containing 10% fetal calf serum at 37 °C in a humidified atmosphere containing 5% CO2. VC8 hamster cells were defective in DNA double-strand break (DSB) repair by homologous recombination (HR) due to the lack of functional BRCA2 protein [69, 70]. VC8 cells were provided by B. Kaina (Institute of Toxicology, Mainz, Germany). Nucleotide excision repair defective XPA and CSB deficient cells were also provided by B. Kaina and were described before. They were grown in DMEM containing 10% fetal calf serum. Human neuroblastoma cells (IMR-32 and SH-SY5Y) were purchased from the German Collection of Microorganisms and Cell Cultures (DSMZ, Braunschweig, Germany) and were used as a model of malignant cells. They were grown in DMEM or RPMI (Roswell park memorial institute) medium, respectively, containing 10% fetal calf serum. If not stated otherwise, HDACi were added to the exponentially growing cells and analyses were performed 6 h to 72 h later.
(§2) Cell viability was determined using the Alamar blue assay, which reflected the mitochondrial activity. Viable cells were characterized by an effective mitochondrial metabolization of the non-fluorescent dye resazurin (Sigma, Steinheim, Germany) to fluorescent resorufin (excitation: 535 nm, emission: 590 nm). Relative viability in the untreated control was set to 100%. In addition, the Neutral red assay, which measures the integrity of lysosomal membranes, was used to monitor cytotoxicity. To this end, cells were incubated with the Neutral red solution (0.01%) in an atmosphere containing 5% CO2 for 90 min before they were fixed (1% formaldehyde/1% CaCl2). Afterwards, the Neutral red that was taken up by the cells was extracted (50% ethanol/1% of acetic acid, 15 min at room temperature (RT)) and absorbance (540 nm) was measured. If not stated otherwise, data are shown as the mean ± standard deviation (SD) of two to three independent experiments each performed in quadruplicate. Approximate IC50 (~IC50, see Supplementary Table S1) were calculated from the corresponding dose-response curves.

[3] = tested on: V79 cells; assay: Caspase-3/-7 cleavage by Western blot (apoptosis); assay type: cell-based, hamster; conditions: for activation of caspase-3 and -7: 10 µM, 24 h, V79, in words; for Apoptosis: summary grade, calculated on the basis of caspase-3,-7 cleavage and SubG1 population, V79; as to apoptosis: key: −: no effect; 0: weak effect; +: moderate effect; ++: strong effect; +++: very strong effect as compared to untreated controls
Description: The activation of the DDR was investigated by Western blot analysis. To this end, total cell extracts were obtained by lysing an equal number of cells in Roti®-Load buffer (Carl Roth GmbH (Karlsruhe, Germany)) (5 min, RT). After sonication (EpiShear™ Probe sonicator, Active Motif, La Hulpe, Belgium), proteins were denatured by heating (5 min, 95 °C) and separated by SDS-PAGE (6% or 12.5% gel). Proteins were transferred onto a nitrocellulose membrane (GE Healthcare, Little Chalfont, UK) via the Protean Mini Cell System (BioRad (München, Germany)). The membrane was blocked with 5% non-fat milk in TBS/0.1% Tween 20 (MERCK, Darmstadt, Germany) (2 h, RT) and incubated with the corresponding primary antibody (1:1000, overnight, 4 °C). After washing with TBS/0.1% Tween 20, the secondary (peroxidase-conjugated) antibody was added (1:2000, 2 h, RT). The Fusion FX7 imaging system (PeqLab, Erlangen, Germany) was used for visualization of the bound antibodies. The following primary antibodies were used: Anti-Ser15 phosphorylated protein 53 (p-p53), anti-Talin-1, anti-Ser 345 checkpoint kinase 1 (p-Chk1), anti-cleaved caspase 3 and 7 (Cell Signaling, Beverly, MA, USA), anti-Ser824 phosphorylated Krüppel-associated box domain (KRAB)-associated protein-1 (p-Kap1), anti-Ser1981 phosphorylated ataxia telangiectasia mutated (pATM) and anti-Thr68 phosphorylated checkpoint kinase-2 (p-Chk2) (both Abcam, Cambridge, MA, USA), anti-Ser139 phosphorylated histone H2AX (γH2AX, Millipore, Billerica, MA, USA), and anti-β-actin (Santa Cruz, CA, USA). As secondary antibodies, horseradish peroxidase-conjugated secondary antibodies goat anti-mouse IgG and mouse anti-rabbit IgG (Rockland, Limerick, PA, USA) (2 h, RT) were used.

[4] = tested on: V79 cells; assay: Cell cycle distribution / SubG1 fraction by flow cytometry; assay type: cell-based, hamster; conditions: 24 h, in words
Description: For flow cytometry-based analysis of cell cycle distribution, cells were trypsinized and combined with floating cells present in the medium. Following fixation with ice-cold ethanol (80%) (≥1 h, −20 °C), cells were pelleted (1000× g, 10 min, 4 °C) and suspended in phosphate-buffered saline (PBS). DNase-free RNase A (Serva, Heidelberg, Germany) was added (2 μg/mL, 1 h at RT). Nuclei were stained with propidium iodide (36.7 μg/mL Sigma, Steinheim, Germany) and analysis was performed using BD Accuri™C6 flow cytometer (BD, Franklin Lakes, NJ, USA).

[5] = tested on: XPA-deficient cells; assay: Viability of XPA-deficient versus proficient fibroblasts (Alamar blue); assay type: cell-based, human; conditions: 72 h, in words
Description: Figure 7 Sensitivity of nucleotide excision repair (NER) defective cells to hydroxamic acid- and benzamide-type HDACi. Viability of wild-type human fibroblasts and fibroblasts defective in nucleotide excision repair (NER) pathways (i.e., global genome nucleotide excision repair (GG-NER) or transcription-coupled nucleotide excision repair (TC-NER)) due to a defect in Xeroderma pigmentosum group A protein (XPA) or Cockayne syndrome protein B (CSB), respectively, was analyzed 72 h after the addition of HDACi by the Alamar blue assay, as described in Methods. The DNA intrastrand cross-linking agent cisplatin was used for control. Data shown are the mean ± SD from three independent experiments (n = 3) each performed in triplicate (N = 3); ns, not significant; *, p ≤ 0.05; **, p ≤ 0.01 as compared to the corresponding untreated controls (Student´s t-test).
V79 hamster lung cells, which are recommended in the OECD toxicology guidelines for hazard identification (i.e., cytotoxicity and genotoxicity) of chemicals, were purchased from the German Collection of Microorganisms and Cell Cultures (DSMZ, Braunschweig, Germany). They were cultured in Dulbecco´s modified Eagle medium and Ham´s F12 medium (DMEM/F12) (PromoCell, Heidelberg, Germany) containing 10% fetal calf serum at 37 °C in a humidified atmosphere containing 5% CO2. VC8 hamster cells were defective in DNA double-strand break (DSB) repair by homologous recombination (HR) due to the lack of functional BRCA2 protein [69, 70]. VC8 cells were provided by B. Kaina (Institute of Toxicology, Mainz, Germany). Nucleotide excision repair defective XPA and CSB deficient cells were also provided by B. Kaina and were described before. […]
Cell viability was determined using the Alamar blue assay, which reflected the mitochondrial activity. […] Afterwards, the Neutral red that was taken up by the cells was extracted (50% ethanol/1% of acetic acid, 15 min at room temperature (RT)) and absorbance (540 nm) was measured. […] Approximate IC50 (~IC50, see Supplementary Table S1) were calculated from the corresponding dose-response curves.

[6] = tested on: IMR-32 neuroblastoma cells; assay: Neutral red assay (cytotoxicity), IMR-32 cells; assay type: cell-based, human
Description: as §1, §2

[7] = tested on: IMR-32 neuroblastoma cells; assay: Alamar blue assay (cell viability), IMR-32 cells; assay type: cell-based, human
Description: as §1, §2

[8] = tested on: SH-SY5Y neuroblastoma cells; assay: Neutral red assay (cytotoxicity), SH-SY5Y cells; assay type: cell-based, human
Description: as §1, §2

[9] = Homo sapiens, IMR-32, 24 h, approximate IC50, read-out: IC50 - 24 h Treatment, IMR-32
[10] = Homo sapiens, IMR-32, 72 h, approximate IC50, read-out: IC50 - 72 h Treatment, IMR-32
[11] = 24 h, approximate IC50, read-out: IC50 - 24 h Treatment, IMR-32
[12] = 72 h, approximate IC50, read-out: IC50 - 72 h Treatment, IMR-32
[13] = 24 h, approximate IC50, read-out: IC50 - 24 h Treatment, SH-SY5Y
[14] = 72 h, approximate IC50, read-out: IC50 - 72 h Treatment, SH-SY5Y

Row | Mean (% DNA in tail) ([1]; 2 µM) | Mean (% DNA in tail) ([1]; 10 µM) | Mean (% DNA in tail) ([1]; 50 µM) | Comet Assay [1] | Mean (% DNA in tail) ([1]; 100 µM) | IC50 [7, 11] [µM] | IC50 [7, 12] [µM] | Compound | DNA strand breaks (comet assay) [1] | DSB Repair def. Cells [2] | activation of caspase-3 and -7 [3] | Apoptosis [3] | percentage of V79 cells in the SubG1 fraction [4] | sensitivity of XPA-deficient versus XPA proficient cells [5] | IC50 [6, 11] [µM] | IC50 [6, 12] [µM] | IC50 [8, 13] [µM] | IC50 [8, 14] [µM] | other results
1 | 14.0 | 8.0 | 13.2 | − |  |  |  | O=C(CCCCCCC(=O)Nc1ccccc1)NO [Vorinostat, vorinostat, reference compound] | did not cause a significant rise in DNA damage | ++ | activation of caspase-3 and -7 | ++ | moderate increase of the percentage of V79 cells present in the SubG1 fraction | XPA-deficient cells are even more resistant |  |  |  |  | 
2 |  | 34.5 | 37.8 | − | 34.9 |  |  | Nc1ccccc1NC(=O)c1ccc(CNC(=O)OCc2cccnc2)cc1 [Entinostat, entinostat, reference compound] | only promoted the formation of DNA strand breaks | + | only activated caspase-7 but not caspase-3 | 0 | did not increase the percentage of cells present in the SubG1 fraction |  |  |  |  |  | IC50 [6, 9]: > 50 µM; IC50 [6, 10]: 3 µM; IC50 [7, 9]: 50 µM; IC50 [7, 10]: 2 µM; IC50 ([8]; Homo sapiens, SH-SY5Y, 24 h, approximate IC50, read-out: IC50 - 24 h Treatment, SH-SY5Y): > 50 µM; IC50 ([8]; Homo sapiens, SH-SY5Y, 72 h, approximate IC50, read-out: IC50 - 72 h Treatment, SH-SY5Y): 9 µM
3 |  | 34.0 | 48.1 | + | 35.5 | 3 | 2 | Nc1ccc(F)cc1NC(=O)c1ccc(CONC(=O)C=Cc2cccnc2)cc1 [MPK77] | significant increase in DNA strand breaks at all concentrations tested | + | nor did they activate the executor caspases-3 and -7 | − | neither induced cell death as reflected by an increase in the SubG1 population |  | 9 | 3 | > 50 | 23 | 
4 | 15.1 | 6.9 | 17.3 | − |  | 0.6 | 0.2 | CN(C)c1ccc(C(=O)N(CC(=O)NCc2ccccc2)Cc2ccc(C(=O)NO)cc2)cc1 [DDK137] | did not cause a significant rise in DNA damage | + | activation of caspase-3 and -7 | + |  | XPA-deficient cells are even more resistant | 10 | 0.3 | > 50 | 1 | 
